Results published in the NIST ThermoML archive (doi:10.1021/je800012v).
± gives the expanded uncertainty stated by the source.

Test: xn = mol fraction of the nth substance listed
Settings: Liquid

CCCCCl [1-chlorobutane] + CCCCCC
mass density [kg/m3]
Settings	x1 = 0.1099	x1 = 0.212	x1 = 0.2925	x1 = 0.316	x1 = 0.405	x1 = 0.4978	x1 = 0.5975	x1 = 0.6869	x1 = 0.8294	x1 = 0.9025
283.15 K, 100 kPa	688.16 ± 0.31	707.78 ± 0.3	724.14 ± 0.28	728.91 ± 0.28	747.8 ± 0.27	768.4 ± 0.25	791.4 ± 0.24	813.19 ± 0.23	849.71 ± 0.2	869.66 ± 0.19
283.15 K, 2500 kPa	690.51 ± 0.37	710.17 ± 0.35	726.49 ± 0.33	731.23 ± 0.33	750.19 ± 0.31	770.77 ± 0.29	793.76 ± 0.27	815.54 ± 0.26	852.04 ± 0.23	871.97 ± 0.22
283.15 K, 5000 kPa	692.85 ± 0.42	712.52 ± 0.4	728.83 ± 0.38	733.62 ± 0.38	752.56 ± 0.36	773.13 ± 0.33	796.11 ± 0.31	817.89 ± 0.28	854.38 ± 0.25	874.31 ± 0.23
283.15 K, 10000 kPa	697.27 ± 0.53	716.94 ± 0.5	733.31 ± 0.48	738.08 ± 0.47	757.05 ± 0.44	777.64 ± 0.41	800.62 ± 0.38	822.39 ± 0.35	858.86 ± 0.3	878.8 ± 0.27
283.15 K, 15000 kPa	701.44 ± 0.64	721.17 ± 0.61	737.55 ± 0.57	742.33 ± 0.56	761.32 ± 0.53	781.91 ± 0.49	804.89 ± 0.45	826.69 ± 0.41	863.18 ± 0.34	883.07 ± 0.31
283.15 K, 20000 kPa	705.42 ± 0.75	725.18 ± 0.7	741.57 ± 0.67	746.36 ± 0.66	765.38 ± 0.61	785.99 ± 0.56	808.98 ± 0.51	830.8 ± 0.46	867.28 ± 0.38	887.19 ± 0.35
283.15 K, 25000 kPa	709.18 ± 0.85	728.95 ± 0.8	745.4 ± 0.76	750.17 ± 0.74	769.24 ± 0.69	789.87 ± 0.64	812.89 ± 0.57	834.7 ± 0.52	871.21 ± 0.42	891.13 ± 0.38
283.15 K, 30000 kPa	712.77 ± 0.95	732.59 ± 0.89	749.06 ± 0.84	753.86 ± 0.83	772.94 ± 0.77	793.59 ± 0.71	816.62 ± 0.64	838.47 ± 0.57	875.01 ± 0.46	894.92 ± 0.41
283.15 K, 35000 kPa	716.2 ± 1.1	736.03 ± 0.98	752.55 ± 0.93	757.33 ± 0.91	776.47 ± 0.84	797.15 ± 0.77	820.23 ± 0.69	842.08 ± 0.62	878.63 ± 0.49	898.57 ± 0.44
293.15 K, 100 kPa	679 ± 0.32	698.47 ± 0.3	714.61 ± 0.29	719.31 ± 0.29	738.08 ± 0.27	758.47 ± 0.26	781.32 ± 0.24	802.85 ± 0.23	839.13 ± 0.21	858.87 ± 0.2
293.15 K, 2500 kPa	681.5 ± 0.37	701.01 ± 0.36	717.13 ± 0.34	721.84 ± 0.34	740.6 ± 0.32	761 ± 0.3	783.84 ± 0.28	805.38 ± 0.26	841.63 ± 0.24	861.35 ± 0.22
293.15 K, 5000 kPa	684.03 ± 0.43	703.52 ± 0.41	719.69 ± 0.39	724.38 ± 0.39	743.13 ± 0.37	763.54 ± 0.34	786.39 ± 0.32	807.91 ± 0.29	844.15 ± 0.26	863.85 ± 0.24
293.15 K, 10000 kPa	688.77 ± 0.55	708.3 ± 0.52	724.48 ± 0.49	729.18 ± 0.49	747.97 ± 0.46	768.33 ± 0.43	791.18 ± 0.39	812.71 ± 0.36	848.93 ± 0.31	868.63 ± 0.29
293.15 K, 15000 kPa	693.23 ± 0.66	712.77 ± 0.62	728.99 ± 0.59	733.71 ± 0.58	752.5 ± 0.55	772.88 ± 0.51	795.72 ± 0.46	817.27 ± 0.42	853.49 ± 0.36	873.18 ± 0.32
293.15 K, 20000 kPa	697.41 ± 0.77	717.01 ± 0.72	733.23 ± 0.69	737.99 ± 0.67	756.78 ± 0.63	777.19 ± 0.58	800.04 ± 0.53	821.6 ± 0.48	857.83 ± 0.4	877.51 ± 0.36
293.15 K, 25000 kPa	701.41 ± 0.87	721.03 ± 0.82	737.29 ± 0.78	742.03 ± 0.76	760.9 ± 0.71	781.3 ± 0.66	804.2 ± 0.6	825.76 ± 0.54	861.98 ± 0.44	881.68 ± 0.4
293.15 K, 30000 kPa	705.17 ± 0.98	724.84 ± 0.92	741.13 ± 0.87	745.88 ± 0.85	764.76 ± 0.79	785.2 ± 0.73	808.12 ± 0.66	829.7 ± 0.6	865.95 ± 0.49	885.66 ± 0.43
293.15 K, 35000 kPa	708.81 ± 1.1	728.53 ± 1	744.84 ± 0.95	749.61 ± 0.94	768.53 ± 0.87	788.98 ± 0.8	811.92 ± 0.72	833.53 ± 0.65	869.81 ± 0.52	889.53 ± 0.46
298.15 K, 100 kPa	674.32 ± 0.32	693.72 ± 0.31	709.76 ± 0.29	714.52 ± 0.29	733.09 ± 0.28	753.4 ± 0.26	776.16 ± 0.25	797.59 ± 0.23	833.73 ± 0.21	853.37 ± 0.2
298.15 K, 2500 kPa	676.93 ± 0.38	696.34 ± 0.36	712.38 ± 0.35	717.11 ± 0.34	735.72 ± 0.32	756.03 ± 0.31	778.78 ± 0.28	800.23 ± 0.27	836.3 ± 0.24	855.94 ± 0.23
298.15 K, 5000 kPa	679.56 ± 0.44	698.96 ± 0.42	715.02 ± 0.4	719.75 ± 0.39	738.37 ± 0.37	758.67 ± 0.35	781.41 ± 0.32	802.86 ± 0.3	838.91 ± 0.26	858.53 ± 0.25
298.15 K, 10000 kPa	684.48 ± 0.55	703.92 ± 0.52	719.98 ± 0.5	724.72 ± 0.49	743.38 ± 0.46	763.66 ± 0.43	786.38 ± 0.4	807.84 ± 0.37	843.87 ± 0.32	863.49 ± 0.29
298.15 K, 15000 kPa	689.11 ± 0.67	708.6 ± 0.63	724.66 ± 0.6	729.39 ± 0.59	748.1 ± 0.55	768.37 ± 0.52	791.12 ± 0.47	812.57 ± 0.43	848.59 ± 0.36	868.18 ± 0.33
298.15 K, 20000 kPa	693.45 ± 0.78	712.95 ± 0.73	729.06 ± 0.69	733.8 ± 0.68	752.52 ± 0.64	772.82 ± 0.59	795.57 ± 0.54	817.04 ± 0.49	853.07 ± 0.41	872.66 ± 0.37
298.15 K, 25000 kPa	697.55 ± 0.88	717.1 ± 0.83	733.24 ± 0.79	737.94 ± 0.78	756.74 ± 0.73	777.05 ± 0.67	799.82 ± 0.61	821.3 ± 0.55	857.35 ± 0.46	876.94 ± 0.41
298.15 K, 30000 kPa	701.45 ± 0.99	721.06 ± 0.93	737.22 ± 0.88	741.91 ± 0.86	760.75 ± 0.81	781.09 ± 0.74	803.9 ± 0.67	825.39 ± 0.61	861.46 ± 0.5	881.06 ± 0.44
298.15 K, 35000 kPa	705.16 ± 1.1	724.8 ± 1	741 ± 0.97	745.72 ± 0.95	764.57 ± 0.89	784.94 ± 0.82	807.76 ± 0.74	829.27 ± 0.66	865.37 ± 0.54	884.99 ± 0.48
303.15 K, 100 kPa	669.66 ± 0.33	689.16 ± 0.31	704.96 ± 0.3	709.76 ± 0.3	728.25 ± 0.28	748.32 ± 0.27	770.96 ± 0.25	792.32 ± 0.24	828.52 ± 0.22	847.81 ± 0.21
303.15 K, 2500 kPa	672.37 ± 0.38	691.9 ± 0.36	707.69 ± 0.35	712.51 ± 0.35	730.98 ± 0.33	751.02 ± 0.31	773.66 ± 0.29	795.01 ± 0.27	831.2 ± 0.24	850.48 ± 0.23
303.15 K, 5000 kPa	675.06 ± 0.44	694.62 ± 0.42	710.41 ± 0.4	715.21 ± 0.4	733.71 ± 0.38	753.76 ± 0.35	776.4 ± 0.33	797.74 ± 0.31	833.88 ± 0.27	853.16 ± 0.25
303.15 K, 10000 kPa	680.26 ± 0.56	699.79 ± 0.53	715.6 ± 0.51	720.44 ± 0.5	738.89 ± 0.47	759.01 ± 0.44	781.67 ± 0.41	802.98 ± 0.38	839.08 ± 0.32	858.38 ± 0.3
303.15 K, 15000 kPa	685.01 ± 0.67	704.53 ± 0.64	720.39 ± 0.61	725.23 ± 0.6	743.69 ± 0.56	–	–	–	–	–
